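Protocol summary: plate cells (96-well), add compound at 5 concentrations, incubate 48 h, interpolate endpoints linearly. GI50 marks 50% less growth.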 Active and inactive are the calls of the source. Cut-off read from the data, not from the text of the source: active = GI50 up to about 1.1 µM and inactive = higher. A value given as a limit tells only on which side of the number the result lay.

Test in all cases: NCI-60 cell line screen, 48 h
Experiment [1] concerns 786-0.
The test system of experiment [2] is A549.
Experiment [3] concerns EKVX.
For experiment [4], the system named is HCC 2998.
Experiment [5] concerns HOP-92.
Experiment [6] has as its system Hs-578T.
Experiment [7] has as its system IGROV-1.
Experiment [8] deals with MOLT-4.
Experiment [9] relates to NCI-H23.
For experiment [10], the system named is NCI-H460.
Experiment [11] concerns OVCAR-3.
In experiment [12] the test system is OVCAR-4.
Experiment [13] deals with OVCAR-8.
Experiment [14] has as its system PC-3.
In experiment [15] the test system is SNB-19.
The test system of experiment [16] is SNB-75.
For experiment [17], the system named is SW-620.
For experiment [18], the system named is U-251.
For experiment [19], the system named is UACC-62.
Experiment [20] has as its system SF-539.

`CC1CCc2sc3nc(S)n(-c4ccccc4)c(=O)c3c2C1` (configuration not stated): the GI50 in experiment [1] is 62.7 µM (inactive); in experiment [2] it was 81.8 µM (inactive); in experiment [3] it was > 100 µM (inactive); in experiment [4], 21.6 µM (inactive); in experiment [5], 37.7 µM (inactive); in [6], 61.1 µM (inactive). In addition, the GI50 is 47.4 µM (inactive) in experiment [7]; 41.1 µM (inactive) in [8]; 92.7 µM (inactive) in [9]; 34.4 µM (inactive) in experiment [10]; 39.6 µM (inactive) in [11]; 39.7 µM (inactive) in [12]. Also, the GI50 in experiment [13] is > 100 µM (inactive); in experiment [14] it was 33.3 µM (inactive); in [15], 45.5 µM (inactive); in experiment [16], 29.3 µM (inactive); in experiment [17], > 100 µM (inactive); in experiment [18], 49.2 µM (inactive). Besides, the GI50 in experiment [19] was 31.3 µM (inactive).
Take `Nc1nc(O)nc2c1ncn2C1OC(CO)C(O)C1O` (configuration not stated): the GI50 was 97.5 µM (inactive) in experiment [1]; > 100 µM (inactive) in [2]; > 100 µM (inactive) in [3]; 25.7 µM (inactive) in [4]; 57.1 µM (inactive) in experiment [5]; > 100 µM (inactive) in [6]. The GI50 was > 100 µM (inactive) in experiment [7]; 26.1 µM (inactive) in experiment [8]; > 100 µM (inactive) in experiment [9]; > 100 µM (inactive) in experiment [10]; 52.7 µM (inactive) in experiment [11]; 37 µM (inactive) in experiment [12]. Further, the GI50 in [13] is 23.8 µM (inactive); in experiment [14], 22.6 µM (inactive); in [15] it was > 100 µM (inactive); in [16], 6.18 µM (inactive); in experiment [17], 50.7 µM (inactive); in experiment [18] it was > 100 µM (inactive). For the same compound, the GI50 in [19] is > 100 µM (inactive).
`Cc1nc(O)nc2nc3ccc(Cl)cc3c(NCCNCCO)c12`: the GI50 in [1] is 8.75 µM (inactive); in experiment [2], 17.4 µM (inactive); in experiment [3] it was 11.4 µM (inactive); in experiment [4] it was 13.6 µM (inactive); in experiment [5], 11.4 µM (inactive); in experiment [6], 13.5 µM (inactive). Also, the GI50 was 12.3 µM (inactive) in experiment [7]; 7.53 µM (inactive) in experiment [8]; 8.77 µM (inactive) in experiment [9]; 12.5 µM (inactive) in experiment [10]; 12.5 µM (inactive) in [11]; 12.4 µM (inactive) in experiment [12]. Moreover, the GI50 in [13] is 9.46 µM (inactive); in experiment [14], 13.7 µM (inactive); in [20] it was 7.16 µM (inactive); in [15], 9.06 µM (inactive); in experiment [17], 6.87 µM (inactive); in [18], 8.73 µM (inactive). Moreover, the GI50 in experiment [19] was 12 µM (inactive).
With `Nc1ccc(Oc2ccc(C34CC5CC(C3)CC(c3ccc(Oc6ccc(N)c(O)c6)cc3)(C5)C4)cc2)cc1O`, the GI50 is 4.36 µM (inactive) in experiment [1]; 1.64 µM (inactive) in experiment [2]; 1.72 µM (inactive) in experiment [3]; 1.47 µM (inactive) in experiment [4]; 1.98 µM (inactive) in [5]; 2.02 µM (inactive) in [6]. Also, the GI50 in experiment [7] was 1.5 µM (inactive); in [8], 2.48 µM (inactive); in [9], 1.79 µM (inactive); in experiment [10], 1.75 µM (inactive); in [11], 2.03 µM (inactive); in experiment [12], 2.24 µM (inactive). For the same compound, the GI50 in experiment [13] was 1.7 µM (inactive); in experiment [14], 1.75 µM (inactive); in experiment [20], 2.13 µM (inactive); in experiment [15], 1.52 µM (inactive); in [17], 2.89 µM (inactive); in experiment [18], 1.36 µM (inactive). The GI50 in [19] is 2.25 µM (inactive).
For `COCc1nc2c(OC)c(-c3nc4ccc(N5CCN(C)CC5)nc4[nH]3)cc(OC)c2[nH]1`, the GI50 in experiment [1] was 40.7 µM (inactive); in experiment [2], 46 µM (inactive); in experiment [3] it was 68.1 µM (inactive); in [4] it was 99.3 µM (inactive); in experiment [5], > 100 µM (inactive); in [6], > 100 µM (inactive). The GI50 in experiment [7] is > 100 µM (inactive); in experiment [8], 37.1 µM (inactive); in experiment [9], 62.5 µM (inactive); in experiment [10] it was 35.3 µM (inactive); in [11], 15.9 µM (inactive); in experiment [12], 46.1 µM (inactive). Besides, the GI50 in [13] was 82.6 µM (inactive); in [14], 33.3 µM (inactive); in experiment [15], 48 µM (inactive); in [16], 18 µM (inactive); in [17] it was 39.1 µM (inactive); in experiment [18], 39.7 µM (inactive). Further, in experiment [19], the GI50 was > 100 µM (inactive).
On to `COC(=O)c1c(C)nc(C)c(N=O)c1-c1ccccc1C(F)(F)F`, for which the GI50 is 17.6 µM (inactive) in experiment [1]; > 100 µM (inactive) in experiment [2]; 99.8 µM (inactive) in [3]; 79.6 µM (inactive) in [4]; 17.3 µM (inactive) in [5]; 19 µM (inactive) in experiment [6]. Further, the GI50 in experiment [7] is 17.7 µM (inactive); in experiment [8], 6.25 µM (inactive); in experiment [9], 20.5 µM (inactive); in [10], 80.4 µM (inactive); in [11], 17.3 µM (inactive); in [12], 16.1 µM (inactive). The GI50 in [13] was 17.9 µM (inactive); in experiment [14] it was 34.2 µM (inactive); in [20], 20.7 µM (inactive); in [15], > 100 µM (inactive); in [17], 15.5 µM (inactive); in [18] it was 17.5 µM (inactive). Further, in experiment [19], the GI50 was 27.6 µM (inactive).
Turning to `CC(C)(C(=O)NN)c1ccccc1`, the GI50 is > 100 µM (inactive) in [1]; > 100 µM (inactive) in experiment [2]; 34.6 µM (inactive) in experiment [3]; > 100 µM (inactive) in [4]; > 100 µM (inactive) in [5]; > 100 µM (inactive) in experiment [6]. For the same compound, the GI50 in experiment [7] is 8.79 µM (inactive); in experiment [8], > 100 µM (inactive); in [9] it was > 100 µM (inactive); in experiment [10], 37.2 µM (inactive); in [11], > 100 µM (inactive); in [13], > 100 µM (inactive). The GI50 in [14] is > 100 µM (inactive); in experiment [20], 42.2 µM (inactive); in [15], > 100 µM (inactive); in experiment [16] it was > 100 µM (inactive); in [17], 33 µM (inactive); in [18], > 100 µM (inactive). Further, in experiment [19], the GI50 is 19.3 µM (inactive).
Consider `N=C(N)NS(=O)(=O)c1ccc(Nc2c3ccccc3nc3c(C(=O)NNCCO)cccc23)cc1`, for which the GI50 in [1] was 0.436 µM (active); in experiment [2], 0.473 µM (active); in experiment [3], 0.361 µM (active); in experiment [4], 0.211 µM (active); in experiment [5], 0.284 µM (active); in experiment [6], 0.249 µM (active). Besides, the GI50 is 0.153 µM (active) in experiment [7]; 0.184 µM (active) in [8]; 0.133 µM (active) in experiment [9]; 0.158 µM (active) in experiment [10]; 0.134 µM (active) in [11]; 0.295 µM (active) in experiment [12]. For the same compound, the GI50 in experiment [13] is 0.303 µM (active); in experiment [14], 0.303 µM (active); in [20], 0.303 µM (active); in experiment [15], 0.276 µM (active); in [17], 0.164 µM (active); in experiment [18], 0.139 µM (active). The GI50 in experiment [19] is 0.27 µM (active).

Source of the values: ChEMBL document CHEMBL1201862, “PubChem BioAssay data set” (2004).
